Assay results as given in patent US20050256051A1, “Nuclear receptor-mediated introduction of a PNA into cell nuclei” (The Population Council, Inc., priority 2001, published 2005).

What was measured:
[1] = Solubility of PNA constructs in culture medium and stock solution; assay type: physicochemical; conditions: cell culture medium (RPMI complete medium); higher concentrations precipitate; read-out: maximum solubility in RPMI complete medium
Method: Table 1 contains a description of the experimental PNAs used in this study, including their modifications and corresponding abbreviations. In particular, PNA-mycwt is a 17-mer PNA anti-gene for the unique sequence of c-myc, bases 4528-4544, in its II exon (21). […] All the other PNAs listed in Table 1 had solubilities in excess of 500 μM (stock solution described above), far above the 10 μM concentration used in most experiments.

c-myc gene [2] = assay: MYC protein by Western blot normalized to H2b, LNCaP cells; assay type: cell-based, human; conditions: for change in MYC: 2 μM, preliminary experiments
Method: (§1) Total cellular proteins samples were derived from 10^7 cells solubilized in 200 μl Urea lysis buffer (9M Urea, 50 mM Tris, pH 7.0) with brief sonication at 0° C. as needed. Western blot analysis for MYC expression was performed as described previously (29). Briefly, total cellular proteins were electrophoretically separated using 10% acrylamide, 0.4% (w/v) SDS gels and then transferred to a nitrocellulose membrane (Hybond C-extra, Amersham). The membrane was then cut at a […] molecular weight level (using as reference Kaleidoscope pre-stained standards, BioRad). Both membrane halves were incubated in parallel overnight with a primary antibody (top with anti-myc antibody, 9E10 Calbiochem, San Diego, Calif.; bottom with anti-H2b antibody kindly provided by Dr. M. Romani, IST, Genova, I). The membranes were washed and exposed to a rabbit anti-mouse IgG (Dakopatts, Glostrup, DK) at room temperature for 1 h. MYC and H2b bands were visualized by the incubation of the membrane with alkaline phosphatase-conjugated goat anti-rabbit IgG (Sigma) at room temperature for 2 h followed by exposure to the 5-bromo-4-chloro-3-indolylphosphate/nitro blue tetrazolium substrate developer (BCIP/NBT, Sigma).
(§2) The stained and reassembled Western blot images, from triplicate experiments, were digitally acquired, elaborated in Photoshop, and then quantified using Scion-Image. MYC concentrations were normalized to the matching histone H2b concentrations (a protein that remains constant throughout the treatment described). Therefore MYC concentration is reported as a ratio to an H2b standard. For Western blot analyses, the average error was 14.0% (range 8.3 to 25.1%) in the LNCaP experiments and for those with DU145 averaged 10.2% (range 8.5 to 20.3%).
As shown in Fugure 4A, the amount of MYC protein was evaluated by Western blot analysis of […]. The effects of PNAs on expression of the c-myc gene in LNCaP and DU145 cells were also obtained by immunochemical measurement of the MYC protein content of cell lysates, using data obtained from at least a triplicate run of each set of immunostained Western blots. In each case, the MYC content of the whole cell lysate was compared to that of histone H2b, a protein that remains constant throughout the treatment described. The constancy of H2b made it possible to represent variations in MYC protein concentration normalized to the H2b content in the same lysate.

DU145 cells [3] = assay: Cell growth by total cell counts, DU145 cells; assay type: cell-based, human; conditions: 10 μM, 72 h
Method: (§3) Two prostatic carcinoma derived cell lines were used (LNCaP and DU145 cultured in RPMI-1640, 10% charcoal-stripped fetal calf serum). Their features and culture conditions were as previously detailed (26, 27). PNA stock solutions (500 μM in H2O neutralized with NaOH) were added as an aliquot to the culture medium to their final concentration. […] In the gene regulation experiments, PNAmycwt, PNAmycwt-T, PNAmycmut-T, and PNAmycwt-NLS were present at a final 10 μM concentration in the culture medium, for 0, 24, 48, or 72 hours. Cell growth was measured by total cell counts from three replicate flasks (1.3-5.0×10^6 per each 75 cm^2/flask) while cell viability was determined by Trypan blue exclusion. The standard deviation was calculated both for cell growth and viability keeping into account the data from all the experiments (minimum of three each).
(§4) LNCaP and DU145 cells were treated with a 10 μM concentration of PNA constructs in the culture medium (PNA-mycwt-T (Δ), PNA-mycwt, PNA-mycmut, PNA-mycmut-T (●) as negative controls and PNA-mycwt-NLS (▪) as positive control). Cell numbers (FIGS. 3A and C) and viability (FIGS. 3B and D) were estimated, as described above, at increasing times of exposure to different PNA constructs.

DU145 cells [4] = assay: Cell viability by Trypan blue exclusion, DU145 cells; assay type: cell-based, human; conditions: 10 μM, up to 72 h, compared with the about 20% decline seen in LNCaP
Method: as §3, §4

c-myc gene [5] = assay: MYC protein by Western blot normalized to H2b, DU145 cells; assay type: cell-based, human; conditions: 10 μM
Method: as §1, §2
As shown in Fugure 4A, the amount of MYC protein was evaluated by Western blot analysis of total nuclear proteins. […]

LNCaP cells [6] = assay: Cell growth by total cell counts, LNCaP cells; assay type: cell-based, human; conditions: 10 μM, 72 hours
Method: as §3, §4

LNCaP cells [7] = assay: Cell viability by Trypan blue exclusion, LNCaP cells
Method: as §3, §4

Burkitt's lymphoma cells = conditions: 10 μM in the cell medium; cited from earlier work

CCN(CC)c1ccc2c(-c3ccccc3C(=O)NCCCC[C@H](NC(=O)COCCOCCNC(=O)CN(CCNC(=O)CN(CCNC(=O)CN(CCNC(=O)CN(CCNC(=O)CN(CCNC(=O)CN(CCNC(=O)CN(CCNC(=O)CN(CCNC(=O)CN(CCNC(=O)CN(CCNC(=O)CN(CCNC(=O)CN(CCNC(=O)CN(CCNC(=O)CN(CCNC(=O)CN(CCNC(=O)CN(CCNC(=O)CN(CCN)C(=O)Cn3cc(C)c(=O)[nH]c3=O)C(=O)Cn3ccc(N)nc3=O)C(=O)Cn3cnc4c(N)ncnc43)C(=O)Cn3cnc4c(N)ncnc43)C(=O)Cn3ccc(N)nc3=O)C(=O)Cn3cnc4c(=O)[nH]c(N)nc43)C(=O)Cn3cc(C)c(=O)[nH]c3=O)C(=O)Cn3cc(C)c(=O)[nH]c3=O)C(=O)Cn3cnc4c(N)ncnc43)C(=O)Cn3cnc4c(=O)[nH]c(N)nc43)C(=O)Cn3ccc(N)nc3=O)C(=O)Cn3cc(C)c(=O)[nH]c3=O)C(=O)Cn3cc(C)c(=O)[nH]c3=O)C(=O)Cn3ccc(N)nc3=O)C(=O)Cn3cnc4c(N)ncnc43)C(=O)Cn3ccc(N)nc3=O)C(=O)Cn3ccc(N)nc3=O)C(=O)NCC(N)=O)c3ccc(=[N+](CC)CC)cc-3oc2c1 [PNA-mycwt-R]
solubility [1]: 2 µM

CCN(CC)c1ccc2c(-c3ccccc3C(=O)NCCCC[C@H](NC(=O)COCCOCCNC(=O)CN(CCNC(=O)CN(CCNC(=O)CN(CCNC(=O)CN(CCNC(=O)CN(CCNC(=O)CN(CCNC(=O)CN(CCNC(=O)CN(CCNC(=O)CN(CCNC(=O)CN(CCNC(=O)CN(CCNC(=O)CN(CCNC(=O)CN(CCNC(=O)CN(CCNC(=O)CN(CCNC(=O)CN(CCNC(=O)CN(CCNC(=O)COCCOCCNC(=O)CCC(=O)O[C@H]3CC[C@H]4[C@@H]5CC[C@H]6CC(=O)CC[C@]6(C)[C@H]5CC[C@]34C)C(=O)Cn3cc(C)c(=O)[nH]c3=O)C(=O)Cn3ccc(N)nc3=O)C(=O)Cn3cnc4c(N)ncnc43)C(=O)Cn3cnc4c(N)ncnc43)C(=O)Cn3ccc(N)nc3=O)C(=O)Cn3cnc4c(=O)[nH]c(N)nc43)C(=O)Cn3cc(C)c(=O)[nH]c3=O)C(=O)Cn3cc(C)c(=O)[nH]c3=O)C(=O)Cn3cnc4c(N)ncnc43)C(=O)Cn3cnc4c(=O)[nH]c(N)nc43)C(=O)Cn3ccc(N)nc3=O)C(=O)Cn3cc(C)c(=O)[nH]c3=O)C(=O)Cn3cc(C)c(=O)[nH]c3=O)C(=O)Cn3ccc(N)nc3=O)C(=O)Cn3cnc4c(N)ncnc43)C(=O)Cn3ccc(N)nc3=O)C(=O)Cn3ccc(N)nc3=O)C(=O)NCC(N)=O)c3ccc(=[N+](CC)CC)cc-3oc2c1 [PNA-mycwt-TR]
change in MYC (c-myc gene [2]; 24 hours): −20% | change in MYC (c-myc gene [2]; 48 h): −30% | change in MYC (c-myc gene [2]; 72 h): −30% | solubility [1]: 2 µM

PNA-mycwt-NLS: c-myc anti-gene PNA (SEQ ID NO:1) linked to SV40 Nuclear Localization Signal peptide PKKKRKV; positive control (TCAACGTTAGCTTCACC; all peptide nucleic acid (PNA); further chemistry not fully specified) [reference compound]
inhibition of cell growth (DU145 cells [3]): 36% | effect on cell viability (DU145 cells [4]): same magnitude and timing | inhibition of MYC (c-myc gene [5]; 72 hours, linear inhibition): about 65% | cell growth (LNCaP cells [6]): 34 % of control | decrease in MYC content (c-myc gene [2]; 10 μM, 72 h, linear decrease): 52% | decline in cell viability (LNCaP cells [7]; 10 µM): about 20% | cell viability (Burkitt's lymphoma cells): small decrease | inhibition of MYC expression (Burkitt's lymphoma cells): maximum inhibition

PNA-mycwt-T: c-myc anti-gene PNA (SEQ ID NO:1) linked to dihydrotestosterone at N-terminal (TCAACGTTAGCTTCACC; all peptide nucleic acid (PNA); dihydrotestosterone conjugated at PNA N-terminus)
effect on MYC protein / expression (c-myc gene [5]): unaltered | cell growth (LNCaP cells [6]): 34 % of control | effect on MYC protein / expression (c-myc gene [2]; 10 μM): significant and persistent decrease | change in MYC content (c-myc gene [2]; 10 μM, 24 h): −63% | change in MYC content (c-myc gene [2]; 10 μM, 48 hours): −50% | change in MYC content (c-myc gene [2]; 10 μM, 72 hours): −42% | decline in cell viability (LNCaP cells [7]; LNCaP cells, 10 μM, 72 h): about 20%

PNA-mycwt: 17-mer c-myc anti-gene PNA, TCA ACG TTA GCT TCA CC (SEQ ID NO:1), vector-free (TCAACGTTAGCTTCACC; all peptide nucleic acid (PNA); further chemistry not fully specified)
effect on MYC protein / expression (c-myc gene [5]): unaltered | effect on MYC protein / expression (c-myc gene [2]; 10 μM): unchanged
